This note sets out measurements from patent US8361496B2, “Phospholipid gel compositions for drug delivery and methods of treating conditions using same” (Idexx Laboratories Inc., priority 2004, dated 2013).

Each structure is given as a SMILES string.

The data set can be described thus: Clinical study 5.16: serum concentration of tilmicosin after oral administration. Format: in vivo. The conditions noted are these: oral 20 mg/kg, gelatin capsule with the gel of Example 5.14. On the procedure:
Tilmicosin was orally administered to a dog using the pharmaceutical composition of Example 5.14. A sufficient amount of the gel of example 5.14 was placed in a gelatin capsule to provide a dose of 20 mg/kg to the dog. The dog was then orally administered the gelatin capsule containing the tilmicosin pharmaceutical composition of Example 5.14. Blood was then withdrawn from the dog at various time intervals and the serum concentration of tlmicosin determined by the following procedure: (i) A C-18 cartridge (commercially available from Waters Corp. of Milford, Mass.) was connected to a 20 mL syringe and to a single diaphragm vacuum pump (commercially available from Gast Manufacturing Inc. of Benton Harbor, Mich.). […]

Turning to `CC[C@H]1OC(=O)C[C@@H](O)[C@H](C)[C@@H](O[C@@H]2O[C@H](C)[C@@H](O)[C@H](N(C)C)[C@H]2O)[C@@H](CCN2C[C@H](C)C[C@H](C)C2)C[C@@H](C)C(=O)/C=C/C(C)=C/[C@@H]1CO[C@@H]1O[C@H](C)[C@@H](O)[C@@H](OC)[C@H]1OC` [Tilmicosin], the “time for which tilmicosin is provided in the blood of the dog” value is listed as “at least 48 h”.
